Laboratory results: PMC8829777 (Molecular Therapy. Methods & Clinical Development, 2022)

Test system: PBMCs
Assay: IL-2 ELISpot of in vitro expanded PBMCs
Assay type: cell-based, human
Conditions: peptides from other AAV serotypes; PBMCs from four healthy individuals; Figure S11

Sequence: FTVDNNGLY [AAV1 (6)_713-721 N718]
- IL-2 response / secretion: decreased IL-2 response
